Literature values as cited in PMC12264960, “siRNA Interaction and Transfection Properties of Polycationic Phosphorus Dendrimers” (Biomacromolecules, 2025).

Columns and labels:
[1] = system: translation in the prokaryotic system; set-up: method as in earlier work; conditions: ref [4]
[2] = system: translation in the eukaryotic system; set-up: method as in earlier work; conditions: ref [4]

For `NC1C(OCOC2C(N)[C@H](O[C@H]3C(N)C[C@H](N)C(O)C3O)OC(CO)[C@@H]2O)[C@H](O)C(CO)O[C@@H]1O[C@@H]1C(N)C[C@@H](N)C(O)C1O` (some centres unmarked) [NB33], the “times weaker inhibitor of translation compared to apramycin” value [1] is given as 22 times and the “fold better inhibitor of translation compared to apramycin” value [2] is given as 10 fold.
